Experiments:
antibody CHA255 = experiment: Antibody CHA255 binding assay (Centrifree ultrafiltration); set-up: species or system BALB/c mice; conditions: ⁹⁰Y³⁺ or ¹¹¹In³⁺ chelate of DTPA alone
Experimental: As indicated, the monoclonal antibody CHA255 is specific for the In³⁺-benzyl EDTA complex. The affinity and characterization have been described previously in Nature, 316, 265 (1985). Binding assays were performed to verify the identity of the haptens designated as DB-I to DB-VIII. […] For the ⁹⁰Y³⁺ hapten chelate, in particular, CHA255 binding required the presence of the In-benzyl-EDTA moiety as provided in the compounds of the invention. The labeled DB hapten chelates were combined with antibody CHA255 in PBS (10 mM sodium phosphate, 150 mM sodium chloride, pH 7.4) containing 44 »g/ml of human serum albumin and 0.05% Triton-X-100 detergent. Concentrations of the radiolabeled hapten chelating agent and antibody are 5 nM and 133 nM, respectively. The mixture is vortexed and allowed to stand at room temperature for 15 minutes, after which it is transferred to an Amicon Centrifree™ device, with a NMW limit of 30,000, and centrifuged to separate antibody-bound chelate from free hapten chelate. The species bound to the antibody is retained by the membrane and the free chelate flows through the membrane into the filtrate. The extent of antibody-hapten chelate binding is then determined.

[1] = Aqueous solubility (observation during synthesis); type: physicochemical; conditions: metal-free chelating agent, in words
T-380 tumors [2] = experiment: Hapten biodistribution, premix protocol with bifunctional antibody ECH037.2; type: in vivo, nude mice; set-up: TOTAL RECOV: unit not given here; conditions: for % DOSE PER GRAM, KIDNEY / % DOSE PER GRAM, LIVER / % DOSE PER GRAM, TUMOR / FECES / TOTAL RECOV / URINE / % DOSE PER GRAM, BLOOD / TUMOR/BLOOD: premix with 20 µg ECH037.2; for % DOSE PER GRAM, BLOOD: 111In-labeled hapten i.v.; for TUMOR/BLOOD: ratio; for Percent Injected Dose in Feces: premix protocol (Table VI)
Experimental: (§1) Two protocols were used for examining the biodistribution of the derivatized haptens in the presence of the bifunctional antibody ECH037.2. In a premix protocol, ECH037.2 and the derivatized hapten were combined prior to injection in the animals. In the prelocalization protocol, ECH037.2 was injected into the animals, and the antibody was allowed to prelocalize for 24 hours prior to injection of the radiolabeled hapten.
(§2) Biodistribution studies were performed in nude mice carrying subcutaneous implants of the human colon carcinoma cell line T-380 which expresses the carcinoembryonic antigen (CEA) recognized by ECH037.2. Briefly, Balb/C Nu/Nu mice were injected subcutaneously with a minced preparation of T-380 tumor implants and maintained for approximately two weeks, or until the tumor implant had grown to a size of approximately 0.5 grams as described by Hagan, P.L., et al. J. Nuc. Med., 26 1418-1423 (1985). Mice were kept in a sterile environment to prevent complications due to bacterial or viral infections. Biodistributions were performed as described by Halpern, S., et al., Cancer Res. 43, 5347-5355 (1983). Briefly, the radiolabeled haptens were injected intravenously in […], and the pharmacokinetics were evaluated at several time points post-injection. At these times, mice were sacrificed and weighed. Organs were removed, their weight recorded, and each organ was then washed in sterile PBS, pH 7.0, and fixed in formalin solution. Samples of blood, urine and feces also were collected and their weight similarly recorded. The organs, or a portion thereof, were transferred to clean tubes and their radioactive content was determined in a well-type gamma-counter.
(§3) Relative radioactive content of each organ was expressed as a percentage of injected dose per organ.
To indium-label the haptens of the invention 10 »l of 0.1 mM ligand was combined with X »l of ¹¹¹InCl₃ (in 50 mM HCl) and (x+10) »l of 0.26 M ammonium citrate, pH 6.0. X is calculated by the following equation: X = (200 »Ci)/(A »Ci/»l) [formula] where A is the specific activity of the ¹¹¹In.
The labeling was done in an acid-washed microfuge tube. After combining all of the components above, the solution was vortexed and allowed to stand at room temperature for 15 minutes.
Incorporation of the ¹¹¹In into the chelating agent was determined by TLC on silica in a methanol/aqueous ammonium acetate solvent system as described by Meares, et al. (Anal. Biochem., 142, 68-75 (1984)). Greater than 95% incorporation of the radioactivity into the chelate was required for the sample to be submitted for a biodistribution assay.
Prior to injection the ¹¹¹In-labeled hapten was diluted into freshly prepared isotonic sodium bicarbonate (1.39% w/v) containing 1 mg/ml normal human serum albumin (Buminate, 25% solution, Travenol Laboratories, Glendale, California) to which the bifunctional antibody had been added. The final composition of the solution was 0.2 mg/ml ECH037.2, 0.5 »M chelate, 0.1 »Ci/»l ¹¹¹In, all in a volume of 2.0 ml. For the biodistribution studies, 100 »l of the solution was injected into the tail vein of each animal.

T-380 tumors [3] = experiment: Hapten biodistribution, prelocalization protocol with bifunctional antibody ECH037.2; type: in vivo, nude mice
Experimental: as §1, §2, §3
To indium-label the chelating agents for the prelocalization protocol, 5 »l of 0.1 mM chelating agent was combined with X »l of ¹¹¹InCl₃ (in 50 mM HCl) and (x+5) »l of 0.26 M ammonium citrate, pH 6.0. X was calculated by the following equation: X = 200 »Ci/A »Ci/»l [formula] where A is the specific activity of the ¹¹¹InCl₃ solution. The solution was vortexed and allowed to stand at room temperature for 15 minutes, after which incorporation of ¹¹¹In label into the chelating agent was determined as described for the premix protocol. If at least 95 percent of the ¹¹¹In was bound by the chelating agent, the material was then diluted to a final volume of 2 ml with isotonic (1.39 percent, w/v) sodium bicarbonate containing 1 mg/ml normal human serum albumin. This material (100 »l) then was injected into each tail vein of mice which had each been injected 24 hours earlier with 5 »g of ECH037.2 in 100 »l isotonic sodium bicarbonate containing 1 mg/ml normal human serum albumin.

[4] = test system: monoclonal antibody CHA255; experiment: Determination of hapten-antibody dissociation rates; type: binding, BALB/c mice; conditions: 22°C; indium complex of hapten from CHA255 after 100 fold excess of indium-115 loaded hapten
Experimental: Hapten-antibody dissociation rates were determined using monoclonal antibody CHA255, prepared as described in Example 2A, by measuring the quantity of ¹¹¹In³⁺ chelate released from the antibody hapten complex as a function of time after addition of a 100 fold excess (over antibody binding sites) of indium-115 loaded hapten. Thus, for each hapten, a 700 »l solution was prepared containing: antibody at a concentration of 160 nM; indium loaded hapten, trace labeled with ¹¹¹In (total concentration = 160 nM); normal human serum albumin at a total concentration of 1.5 mg/mL; and isotonic phosphate buffered saline, (10 mM PO₄²⁻, 150 mM NaCl, pH 7.2). Indium-115 loaded hapten was added to a final Concentration of […]. Reactions were stirred by placing the sample containers ir a rack mounted on a vortexer head.
At various times after addition of the excess hapten, […] portions of the reaction solutions were transferred to Centrifree tubes (Amicon Corperation, Danvers, Massachusetts) and centrifuged at 1500xg for eight to ten minutes. The reaction time was taken to be the time between addition of the excess hapten and the time the centrifuge reached the desired velocity. Six timepoints, each in duplicate, were obtained over a range of about two reaction half-lives for each rate constant determination. A 200 »l portion from each centrifuged and uncentrifuged solution was then counted for ¹¹¹In. The relative concentration of free hapten was taken to be the ratio of counts in the centrifuged solution to the uncentrifuged solution at each timepoint. Times were recorded to the nearest tenth of a minute.
Room temperature rate constants were measured without the aid of a constant temperature bath. The ambient temperature remained at 22°±1 C.
Rate constants and standard deviations were obtained from a plot of the logarithm of relative complex concentration vs. time. Data were analyzed using the linear regression module of the RS/1 Program (BBN Software Products Corporation, Cambridge, Massachusetts).
Control samples were included in each experiment to determine: A) that the initial condition of 100% of labeled hapten bound to antibody was met, and B) that in the absence of antibody, 100% of counts were able to penetrate the Centrifree membrane. […]

% DOSE PER GRAM, KIDNEY (T-380 tumors [2]; 24 hours) [% DOSE PER GRAM]	% DOSE PER GRAM, LIVER (T-380 tumors [2]; 24 hours) [% DOSE PER GRAM]	% DOSE PER GRAM, TUMOR (T-380 tumors [2]; 24 hours) [% DOSE PER GRAM]	FECES (T-380 tumors [2]; 24 hours)	TOTAL RECOV (T-380 tumors [2]; 24 hours)	URINE (T-380 tumors [2]; 24 hours)	% DOSE PER GRAM, BLOOD (T-380 tumors [2]; 24 hours) [% DOSE PER GRAM]	TUMOR/BLOOD (T-380 tumors [2]; 24 hours)	Percent Injected Dose in Feces (T-380 tumors [2]; 24 hrs.) [Percent Injected Dose]	% DOSE PER GRAM, KIDNEY (T-380 tumors [2]; 48 hours) [% DOSE PER GRAM]	% DOSE PER GRAM, LIVER (T-380 tumors [2]; 48 hours) [% DOSE PER GRAM]	% DOSE PER GRAM, TUMOR (T-380 tumors [2]; 48 hours) [% DOSE PER GRAM]	FECES (T-380 tumors [2]; 48 hours)	TOTAL RECOV (T-380 tumors [2]; 48 hours)	URINE (T-380 tumors [2]; 48 hours)	% DOSE PER GRAM, BLOOD (T-380 tumors [2]; 48 hours) [% DOSE PER GRAM]	TUMOR/BLOOD (T-380 tumors [2]; 48 hours)	Percent Injected Dose in Feces (T-380 tumors [2]; 48 hrs.) [Percent Injected Dose]	Compound	further results
–	–	–	–	–	–	–	–	–	–	–	–	–	–	–	–	–	–	O=C(O)CN(CCN(CC(=O)O)CC(=O)O)CCN(CC(=O)O)CC(=O)O [DTPA, diethylenetriaminepentaacetic acid]	binding to CHA255 (antibody CHA255): neither ⁹⁰Y³⁺ or ¹¹¹In³⁺ DTPA, alone, bound to CHA255
0.5	0.8	1.1	56.5% of total injected dose	68.9	8.9% of total injected dose	1.1	1.00	56.5	0.2	0.6	0.7	68.4% of total injected dose	81.4	10.9% of total injected dose	0.5	1.40	68.4	CCCCCCCCNC(=S)Nc1ccc(CC(CN(CC(=O)O)CC(=O)O)N(CC(=O)O)CC(=O)O)cc1 (centres unmarked) [OTUBE]	aqueous solubility [1]: Low aqueous solubility; amount of hapten in the tumor (T-380 tumors [2]; 24 hrs., premix protocol): 1.1 percent injected dose/gram; injected material excreted in the feces (T-380 tumors [2]; 48 hrs. post injection, premix protocol): 68.4% of the injected material; amount of hapten in the tumor (T-380 tumors [2]; 48 hrs., premix protocol): 0.7 percent injected dose/gram
1.2	1.7	8.4	22.0% of total injected dose	59.7	21.7% of total injected dose	6.2	1.35	22.0	0.8	1.1	6.9	34.9% of total injected dose	66.4	22.4% of total injected dose	3.7	1.86	34.9	O=C(O)Cc1ccc(NC(=S)Nc2ccc(CC(CN(CC(=O)O)CC(=O)O)N(CC(=O)O)CC(=O)O)cc2)cc1 (centres unmarked) [PHATUBE]	fecal excretion (T-380 tumors [3]; 5 µg ECH037.2 24 hours earlier, all time points (4, 24, 48 hours), Figures 3-5, in words): high degree of fecal excretion; tumor/organ values (T-380 tumors [3]; Figures 6-8 (4, 24, 48 hours), in words): exceptional; t1/2, Dissociation Half-Lives [4]: 1.19 h
